Measurements reported in US10017475B2, “Anti-vasculature and anti-tubulin combretastatin analogs for treatment of cancer” (XAVIER UNIVERSITY OF LOUISIANA, priority 2014, dated 2018).
Like-named read-outs stand apart in the source and are kept apart here.

Legend:
HeLa = experiment: Antiproliferative assay (resazurin, 72 h); assay type: cell-based, human; settings: 72 h incubation, read-out: Growth Inhibition IC50 HeLa
Description: (§1) Cells were seeded in 96-well plates (5×10^3 cells/well) containing 50 μL growth medium for 24 hours. After medium removal, 100 μL fresh medium containing individual analog compound at different concentrations was added to each well and incubated at 37° C. for 72 h. […] After 72 h of incubation, 20 μL of resazurin was added for 2 h before recording fluorescence at 560 nm (excitation) and 590 nm (emission) using a Victor microtiter plate fluorimeter (Perkin-Elmer, USA).

MDA-MB-231 = experiment: Antiproliferative assay (resazurin, 72 h); assay type: cell-based, human; settings: MDA-MB-231, 72 h incubation, read-out: Growth Inhibition IC50 MDA-MB-231
Description: as §1

A549 = experiment: Antiproliferative assay (resazurin, 72 h); assay type: cell-based, human; settings: A549, 72 h incubation, read-out: Growth Inhibition IC50 A549
Description: as §1

bovine brain tubulin = experiment: Tubulin polymerization assay; settings: compared to vehicle (DMSO)
Description: It is based on the principal that light is scattered by microtubules to an extent that is proportional to the concentration of the microtubule polymer. Compounds that interact with tubulin will alter the polymerization of tubulin, and this can be detected using a spectrophotometer. The absorbance at 340 nm at 37° C. is monitored. The experimental procedure of the assay was performed as described in version 8.2 of the tubulin polymerization assay kit manual. Varying concentrations of compounds were preincubated with 10 μM bovine brain tubulin in glutamate buffer at 30° C. and then cooled to 0° C. After the addition of 0.4 mM GTP, the mixtures were transferred to 0° C. cuvettes in a recording spectrophotometer and warmed to 30° C. Tubulin assembly was followed turbidimetrically at 350 nm.
The reaction was initiated by the addition of tubulin to a final concentration of 3.0 mg/mL

| Compound | IC50 (HeLa; Homo sapiens, 72 h) | IC50 (MDA-MB-231; Homo sapiens, MDA-MB-231, 72 h) | IC50 (A549; Homo sapiens, A549, 72 h) | melting point | also measured |
| --- | --- | --- | --- | --- | --- |
| COc1ccc(-c2ccc(Br)cn2)c(OC)c1 [Compound 2f, 5-Bromo-2-(2,4-dimethoxyphenyl)pyridine] | > 25 µM | > 100 µM | > 100 µM |  |  |
| COc1ccc(-c2cccc(-c3c(OC)cc(OC)cc3OC)n2)c(OC)c1 [Compound 4q, 2-(2,4-Dimethoxyphenyl)-6-(2,4,6-trimethoxyphenyl)pyridine] | > 25 µM | > 50 µM | > 50 µM | 144 to 145 °C |  |
| COc1ccc(-c2ccc(-c3cc(OC)c(OC)c(OC)c3)nc2)cc1OC [Compound 4i, 5-(3,4-Dimethoxyphenyl)-2-(3,4,5-trimethoxyphenyl)pyridine] | > 25 µM | > 50 µM | > 50 µM | 131 to 132 °C |  |
| COc1ccc(-c2cccc(-c3cc(OC)c(OC)c(OC)c3)n2)cc1O [Compound 4t, 2-Methoxy-5-(6-(3,4,5-trimethoxyphenyl)pyridine-2-yl)phenol] | 0.0047 µM | 0.069 µM | 2.64 µM | 129 to 130 °C | Inhibition of tubulin polymerization (bovine brain tubulin; compound at 1 μM): failed to inhibit tubulin polymerization; Inhibition of tubulin polymerization (bovine brain tubulin; compound at 10 μM): 32% |
| COc1ccc(-c2cccc(Br)n2)cc1OC [Compound 2b, 2-Bromo-6-(3,4-dimethoxyphenyl)pyridine] | > 50 µM | > 25 µM | > 25 µM |  |  |
| COc1ccc(-c2cccc(-c3ccc(O)cc3)n2)cc1OC [Compound 4b, 4-(6-(3,4-Dimethoxyphenyl)pyridin-2-yl)phenol] | 0.86 µM | > 50 µM | > 100 µM | 70 to 72 °C (dec.) |  |
| COc1ccc(-c2cccc(-c3ccc(OC)cc3OC)n2)c(OC)c1 [Compound 3c, 2,6-Bis(2,4-dimethoxyphenyl)pyridine] | 0.011 µM | 0.075 µM | 0.079 µM | 113 to 114 °C |  |
| COc1cc(OC)cc(-c2cccc(-c3ccc(OC)cc3OC)n2)c1 [Compound 4l, 2-(2,4-Dimethoxyphenyl)-6-(3,5-dimethoxyphenyl)pyridine] | > 50 µM | > 25 µM | > 25 µM |  |  |
| COc1ccc(-c2cccc(-c3ccc(OC)cc3)n2)cc1 [Compound 3d, 2,6-Bis(4-methoxyphenyl)pyridine] | 2 µM | 9 µM | > 100 µM | 156 to 158 °C |  |
| COc1ccc(-c2cccc(-c3ccc(O)cc3)n2)cc1 [Compound 4j, 4-(6-(4-Methoxyphenyl)pyridine-2-yl)phenol] | > 50 µM | > 25 µM | > 25 µM | 133 to 134 °C |  |
| COc1ccc(-c2cccc(-c3ccc(OC)c(OC)c3)n2)cc1 [Compound 4d, 2-(3,4-Dimethoxyphenyl)-6-(4-methoxyphenyl)pyridine] | > 25 µM | > 25 µM | > 25 µM |  |  |
| COc1ccc(-c2cccc(-c3ccccc3OC)n2)c(OC)c1 [Compound 4r, 2-(2,4-Dimethoxyphenyl)-6-(2-methoxyphenyl)pyridine] | > 25 µM | > 25 µM | > 50 µM |  |  |
| COc1ccc(-c2cccc(-c3cc(OC)c(OC)c(OC)c3)n2)cc1OC [Compound 4c, 2-(3,4-Dimethoxyphenyl)-6-(3,4,5-trimethoxyphenyl)pyridine] | 0.026 µM | 2.49 µM | > 50 µM | 107 to 108 °C |  |
| COc1ccc(-c2ccc(-c3ccc(OC)cc3OC)nc2)c(OC)c1 [Compound 3g, 2,5-Bis(2,4-dimethoxyphenyl)pyridine] | > 50 µM | > 100 µM | > 100 µM | 124 to 125 °C |  |
| COc1ccc(-c2cccc(-c3c(OC)cccc3OC)n2)c(OC)c1 [Compound 4o, 2-(2,4-Dimethoxyphenyl)-6-(2,6-dimethoxyphenyl)pyridine] | > 50 µM | > 100 µM | > 100 µM | 155 to 156 °C |  |
| COc1cc(-c2ccc(-c3cc(OC)c(OC)c(OC)c3)nc2)cc(OC)c1OC [Compound 3e, 2,5-Bis(3,4,5-trimethoxyphenyl)pyridine] | 2.68 µM | 11 µM | > 100 µM |  |  |
| COc1ccc(-c2cccc(-c3cc(OC)c(OC)c(OC)c3)n2)cc1 [Compound 4f, 2-(4-Methoxyphenyl)-6-(3,4,5-trimethoxyphenyl)pyridine] | > 50 µM | > 25 µM | > 50 µM | 112 to 114 °C |  |

| Compound | IC50 (HeLa; Homo sapiens, 72 h) | IC50 (MDA-MB-231; Homo sapiens, MDA-MB-231, 72 h) | IC50 (A549; Homo sapiens, A549, 72 h) | melting point | also measured |
| --- | --- | --- | --- | --- | --- |
| COc1cc(-c2ccc(Br)cn2)cc(OC)c1OC [Compound 2e, 5-Bromo-2-(3,4,5-trimethoxyphenyl)pyridine] | 14 µM | 12 µM | > 25 µM | 49 to 50 °C |  |
| COc1cc(-c2cccc(-c3cc(OC)c(OC)c(OC)c3)n2)cc(OC)c1OC [Compound 3a, 2,6-Bis(3,4,5-trimethoxyphenyl)pyridine] | 1 µM | 11 µM | > 50 µM |  |  |
| COc1cccc(-c2cccc(-c3ccc(OC)cc3OC)n2)c1 [Compound 4p, 2-(2,4-Dimethoxyphenyl)-6-(3-methoxyphenyl)pyridine] | 0.067 µM | 9.02 µM | 0.56 µM |  |  |
| COc1ccc(-c2ccnc(-c3ccc(OC)cc3OC)c2)c(OC)c1 [Compound 3h, 2,4-Bis(2,4-dimethoxyphenyl)pyridine] | > 25 µM | > 50 µM | > 50 µM | 95 to 97 °C |  |
| COc1cc(-c2cccc(Br)n2)cc(OC)c1OC [Compound 2a, 2-Bromo-6-(3,4,5-trimethoxyphenyl)pyridine] | 12 µM | 6 µM | 9 µM | 100 to 102 °C |  |
| COc1ccc(-c2cccc(-c3ccc(OC)c(OC)c3)n2)c(OC)c1 [Compound 4e, 2-(2,4-Dimethoxyphenyl)-6-(3,4-dimethoxyphenyl)pyridine] | > 50 µM | 13 µM | > 25 µM | 100 to 101 °C |  |
| COc1ccc(-c2cccc(-c3cccc(OC)c3OC)n2)c(OC)c1 [Compound 4n, 2-(2,3-Dimethoxyphenyl)-6-(2,4-dimethoxyphenyl)pyridine] | > 52 µM | > 50 µM | > 51 µM | 79 to 80 °C |  |
| COc1ccc(-c2cccc(Br)n2)cc1 [Compound 2d, 2-Bromo-6-(4-methoxyphenyl)pyridine] | 2 µM | 10 µM | 2 µM | 99 to 100 °C |  |
| COc1ccc(-c2cccc(-c3ccc(O)cc3)n2)c(OC)c1 [Compound 4k, 4-(6-(2,4-Dimethoxyphenyl)pyridine-2-yl)phenol] | > 100 µM | 17.2 µM | 4.22 µM | 112 to 114 °C (dec.) |  |
| COc1ccc(-c2cccc(-c3ccc(OC)c(OC)c3)n2)cc1OC [Compound 3b, 2,6-Bis(3,4-dimethoxyphenyl)pyridine] | > 25 µM | > 50 µM | > 50 µM | 140 to 141 °C |  |
| COc1cc(-c2cccc(-c3ccc(O)cc3)n2)cc(OC)c1OC [Compound 4a, 4-(6-(3,4,5-Trimethoxyphenyl)pyridin-2-yl)phenol] | 8 µM | 10 µM | > 25 µM | 92 to 94 °C (dec.) |  |
| COc1ccc(-c2cccc(-c3cc(OC)c(OC)c(OC)c3)n2)c(OC)c1 [Compound 4g, 2-(2,4-Dimethoxyphenyl)-6-(3,4,5-trimethoxyphenyl)pyridine] | 4.43 µM | > 100 µM | 0.69 µM | 115 to 117 °C |  |
| COc1ccc(-c2cccc(-c3cc(OC)ccc3OC)n2)c(OC)c1 [Compound 4m, 2-(2,4-Dimethoxyphenyl)-6-(2,5-dimethoxyphenyl)pyridine] | 0.034 µM | 0.034 µM | 0.33 µM |  |  |
| COc1cc(-c2ccnc(-c3cc(OC)c(OC)c(OC)c3)c2)cc(OC)c1OC [Compound 3f, 2,4-Bis(3,4,5-trimethoxyphenyl)pyridine] |  |  |  |  | IC50 (HeLa; Homo sapiens): 0.79 µM; IC50 (MDA-MB-231; Homo sapiens): 2.63 µM; IC50 (A549; Homo sapiens): 7.86 µM |
| COc1ccc(-c2cccc(Br)n2)c(OC)c1 [Compound 2c, 2-Bromo-6-(2,4-dimethoxyphenyl)pyridine] | > 50 µM | > 100 µM | > 50 µM |  |  |
| COc1ccc(-c2cccc(-c3ccc(OC)c(O)c3)n2)c(OC)c1 [Compound 5, 2-(2,4-Dimethoxyphenyl)-6-(3-hydroxy-4-methoxyphenyl) pyridin-1-ium chloride] |  |  |  |  | IC50 (HeLa): 0.0026 µM; IC50 (MDA-MB-231): 0.0054 µM; IC50 (A549): 0.042 µM |
